We go through 27 molecules from US20260209220A1, “SUBSTITUTED TETRAHYDROPYRROLO-PYRIDINONE COMPOUNDS AND THEIR USE IN TREATING MEDICAL CONDITIONS” (Karuna Therapeutics, Inc., priority 2022, published 2026).

The target in one experiment is T1, hM4 receptors (Homo sapiens, UniProt P08173).
T1 construct: expressed in transfected cells; host or cells: CHO cells
T1 sequence (P08173 1-479): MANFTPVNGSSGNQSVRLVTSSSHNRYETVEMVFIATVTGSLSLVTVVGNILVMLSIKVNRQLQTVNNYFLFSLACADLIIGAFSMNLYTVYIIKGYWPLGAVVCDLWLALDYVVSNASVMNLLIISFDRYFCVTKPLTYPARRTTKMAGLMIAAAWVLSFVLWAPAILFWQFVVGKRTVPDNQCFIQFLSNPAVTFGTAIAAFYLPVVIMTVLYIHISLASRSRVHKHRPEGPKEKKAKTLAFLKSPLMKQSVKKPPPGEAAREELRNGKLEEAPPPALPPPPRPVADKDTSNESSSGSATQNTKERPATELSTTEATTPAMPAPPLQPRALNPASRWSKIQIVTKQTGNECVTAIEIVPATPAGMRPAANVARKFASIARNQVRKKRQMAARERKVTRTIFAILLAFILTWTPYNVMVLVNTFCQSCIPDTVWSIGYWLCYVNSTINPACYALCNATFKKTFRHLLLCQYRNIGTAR
Put plainly: Human M4 PAM PERK assay (CHO cells, TR-FRET, with EC20 acetylcholine). Format: cell-based. On the procedure:
(§1) Chinese hamster ovary (CHO) cells expressing either hM4 or rM4 receptors were frozen in assay ready vials (5×10^6 cells/vial) after bulking-up in culture. The day before an assay, vial(s) were thawed and cells seeded in 384 well white proxiplates at 1000/well for hM4 cells and at 2000/well for rM4 cells, in 10 μL of growth media (Hams/F12 with glutamax and 10% FCS) and incubated overnight at 37° C./5% CO2.
(§2) On the following morning, the growth media was removed by ‘flicking out’ over a bin, patting the inverted plate onto tissue, and then replacing with 10 μL of wash media (Hams/F12 with glutamax and 8 mM HEPES, NB: serum free). Then, the wash media was removed in the same way and replaced with 8 μL/well of the serum free media. Plates were then re-incubated for a further 4 hours at 37° C./5% CO2.
(§3) Compounds for testing were solubilized to 10 mM in DMSO and compound addition plates, consisting of ten-point concentration response curves (CRC) in duplicate points (10 μM top concentration, ½ log dilution series), were prepared by acoustic dispensing and the compound management group.
(§4) After the 4-hour incubation in serum free media, a 4 μL aliquot of the 3×compound solution containing an EC20 of acetylcholine (10 nM final concentration) was added to the cell plate using a 384 well plate to plate transfer. Then, the plate lid was replaced, and the cells incubated for 5 mins at 37° C./5% CO2. Following this final incubation, all cellular processes were stopped by the addition of 4 μL/well of lysis and blocking buffer and plates were incubated for 30 minutes at RT on an orbital shaker (gentle setting). Then, a final addition of 4 μL/well of antibody detection mix, containing both the Europium-Cryptate (donor) and d2 (acceptor) tagged detection components, was added followed by a further 2-hour incubation at RT, and then the plate was read using a TR-FRET (time resolved fluorescence resonance energy transfer) based protocol.

The target of the next experiment is T2, rM4 receptors (Rattus norvegicus, UniProt P08485).
T2 construct: expressed in transfected cells; host or cells: CHO cells
T2 sequence (P08485 1-478): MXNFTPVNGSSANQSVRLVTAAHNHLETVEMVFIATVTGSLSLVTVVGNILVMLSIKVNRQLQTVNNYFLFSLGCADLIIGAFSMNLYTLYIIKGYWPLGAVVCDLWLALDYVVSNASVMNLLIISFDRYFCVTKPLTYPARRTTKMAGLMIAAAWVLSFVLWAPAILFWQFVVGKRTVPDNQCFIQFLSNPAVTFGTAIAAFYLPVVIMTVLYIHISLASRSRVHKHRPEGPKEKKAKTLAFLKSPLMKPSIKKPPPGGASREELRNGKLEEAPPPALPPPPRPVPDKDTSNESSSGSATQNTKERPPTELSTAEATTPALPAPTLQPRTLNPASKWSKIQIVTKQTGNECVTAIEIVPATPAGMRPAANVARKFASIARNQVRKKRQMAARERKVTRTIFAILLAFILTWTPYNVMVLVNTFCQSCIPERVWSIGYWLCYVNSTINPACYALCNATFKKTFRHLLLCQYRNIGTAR
The experiment is described as follows: Rat M4 PAM PERK assay (CHO cells, TR-FRET, with EC20 acetylcholine). Format: cell-based. The protocol: as §1, §2, §3, §4

For `Cc1cc(=O)n(C)c2c1C(C)N(C(=O)CC1CN(c3ccnc(C(F)(F)F)c3)C1)C2` (stereo not drawn) [Compound I-114], the values for the EC50 at hM4 receptors and at rM4 receptors were under 50 nM and 50 to 200 nM, respectively.
On to `Cc1c2c(n(CC(F)(F)F)c(=O)c1Cl)CN(C(=O)CC1CN(c3ccccc3)C1)C2` [Compound I-94], for which the EC50 at hM4 receptors and at rM4 receptors was 200 to 1000 nM throughout.
`Cc1c2c(n(C)c(=O)c1C)CN(C(=O)CC1CN(c3cccc(F)c3F)C1)C2` [Compound I-48]: the EC50 (in general, the concentration at which the effect is half-maximal) at hM4 receptors is under 50 nM; on rM4 receptors it was 50 to 200 nM.
For `Cc1cc(=O)n(C)c2c1CN(C(=O)CC1CN(c3ccncn3)C1)C2` [Compound I-6], the EC50 at hM4 receptors and on rM4 receptors was 200 to 1000 nM throughout.
Consider `Cc1c2c(n(C)c(=O)c1F)CN(C(=O)CC1CN(c3ccc(F)c(C(F)(F)F)c3)C1)C2` [Compound I-89], for which the EC50 at hM4 receptors and on rM4 receptors was 50 to 200 nM each time.
Regarding `Cc1c2c(n(C)c(=O)c1C)CN(C(=O)CC1CN(c3ccc(C4CC4)c(F)c3)C1C)C2` (stereo not drawn) [Compound I-60, 6-(2-(1-(4-Cyclopropyl-3-fluorophenyl)-2-methylazetidin-3-yl)acetyl)-1,3,4-trimethyl-1,5,6,7-tetrahydro-2H-pyrrolo[3,4-b]pyridin-2-one], the EC50 at hM4 receptors and on rM4 receptors was under 50 nM in each case.
For the molecule `Cc1c2c(n(C)c(=O)c1F)CN(C(=O)CC1CN(c3ccnc(C(F)(F)F)c3)C1)C2` [Compound I-84, 3-Fluoro-1,4-dimethyl-6-(2-(1-(2-(trifluoromethyl)pyridin-4-yl)azetidin-3-yl)acetyl)-1,5,6,7-tetrahydro-2H-pyrrolo[3,4-b]pyridin-2-one], the results for the half-maximal effective concentration (EC50) on hM4 receptors and at rM4 receptors were under 50 nM and 50 to 200 nM, respectively.
For `CSc1c2c(n(C)c(=O)c1C)CN(C(=O)CC1CN(c3ccnc(C(F)(F)F)c3)C1)C2` [Compound I-104, 1,3-Dimethyl-4-(methylthio)-6-(2-(1-(2-(trifluoromethyl)pyridin-4-yl)azetidin-3-yl)acetyl)-1,5,6,7-tetrahydro-2H-pyrrolo[3,4-b]pyridin-2-one] the same measures were 200 to 1000 nM and over 1000 nM.
For `Cc1c2c(n(C)c(=O)c1F)CN(C(=O)CC1CN(c3cccc(C(F)(F)F)c3F)C1)C2` [Compound I-86] the same measures were 200 to 1000 nM and 200 to 1000 nM.
Taken in the same sequence, the figures for `Cc1c2c(n(C)c(=O)c1Cl)CN(C(=O)CC1CN(c3cccnc3)C1)C2` [Compound I-67] were under 50 nM and 50 to 200 nM.
Regarding `Cc1c2c(n(C)c(=O)c1Cl)CN(C(=O)CC1CN(c3cccc(C(F)(F)F)c3)C1)C2` [Compound I-73], the results for the EC50 at hM4 receptors and on rM4 receptors were under 50 nM and 50 to 200 nM, respectively.
Consider `Cc1c2c(n(C)c(=O)c1C#N)CN(C(=O)CC1CN(c3ccnc(C(F)(F)F)c3)C1)C2` [Compound I-111, 1,4-Dimethyl-2-oxo-6-(2-(1-(2-(trifluoromethyl)pyridin-4-yl)azetidin-3-yl)acetyl)-2,5,6,7-tetrahydro-1H-pyrrolo[3,4-b]pyridine-3-carbonitrile], for which the results for the EC50 at hM4 receptors and on rM4 receptors were 50 to 200 nM and 200 to 1000 nM, respectively.
For `Cc1cc(=O)n(C)c2c1CN(C(=O)CC1CN(c3ccnc(C(F)(F)F)c3)C1)C2` [Compound I-1, 1,4-Dimethyl-6-(2-(1-(2-(trifluoromethyl)pyridin-4-yl)azetidin-3-yl)acetyl)-1,5,6,7-tetrahydro-2H-pyrrolo[3,4-b]pyridin-2-one] the same measures were under 50 nM and 200 to 1000 nM.
For `Cc1cc(=O)n(C)c2c1CN(C(=O)CC1CN(c3cnnc(C4CC4)c3)C1)C2` [Compound I-38, 6-(2-(1-(6-Cyclopropylpyridazin-4-yl)azetidin-3-yl)acetyl)-1,4-dimethyl-1,5,6,7-tetrahydro-2H-pyrrolo[3,4-b]pyridin-2-one] the same measures were 50 to 200 nM and 200 to 1000 nM.
In the case of `Cc1c2c(n(C)c(=O)c1Cl)CN(C(=O)CC1CN(c3ccccc3C(F)(F)F)C1)C2` [Compound I-74], the figures for the EC50 on hM4 receptors and at rM4 receptors were 50 to 200 nM and 200 to 1000 nM, respectively.
In the case of `Cc1cc(=O)n(CC2CC2)c2c1CN(C(=O)CC1CN(c3ccnc(C(F)(F)F)c3)C1)C2` [Compound I-101, 1-(Cyclopropylmethyl)-4-methyl-6-(2-(1-(2-(trifluoromethyl)pyridin-4-yl)azetidin-3-yl)acetyl)-1,5,6,7-tetrahydro-2H-pyrrolo[3,4-b]pyridin-2-one], the EC50 at hM4 receptors and at rM4 receptors was 200 to 1000 nM throughout.
As for `CCc1c(C)c2c(n(C)c1=O)CN(C(=O)CC1CN(c3ccnc(C(F)(F)F)c3)C1)C2` [Compound I-107, 3-Ethyl-1,4-dimethyl-6-(2-(1-(2-(trifluoromethyl)pyridin-4-yl)azetidin-3-yl)acetyl)-1,5,6,7-tetrahydro-2H-pyrrolo[3,4-b]pyridin-2-one], the results for the EC50 on hM4 receptors and on rM4 receptors were 50 to 200 nM and over 1000 nM, respectively.
For `Cc1c2c(n(C)c(=O)c1C)CN(C(=O)CC1CN(c3ccc(OC(F)(F)F)cc3)C1)C2` [Compound I-52] the same measures were 50 to 200 nM and 50 to 200 nM.
Taken in the same sequence, the figures for `Cc1c2c(n(C)c(=O)c1Cl)CN(C(=O)CC1CN(c3cncnc3)C1)C2` [Compound I-69] were under 50 nM and 50 to 200 nM.
Taken in the same sequence, the figures for `Cc1cc(=O)n(C)c2c1CN(C(=O)CC1CN(c3cc(C4CC4)c(C#N)c(C(F)(F)F)c3)C1)C2` [Compound I-40, 2-Cyclopropyl-4-(3-(2-(1,4-dimethyl-2-oxo-1,2,5,7-tetrahydro-6H-pyrrolo[3,4-b]pyridin-6-yl)-2-oxoethyl)azetidin-1-yl)-6-(trifluoromethyl)benzonitrile] were 200 to 1000 nM and 200 to 1000 nM.
Take `Cc1c2c(n(C)c(=O)c1Br)CN(C(=O)CC1CN(c3ccnc(C(F)(F)F)c3)C1)C2` [Compound I-110, 3-Bromo-1,4-dimethyl-6-(2-(1-(2-(trifluoromethyl)pyridin-4-yl)azetidin-3-yl)acetyl)-1,5,6,7-tetrahydro-2H-pyrrolo[3,4-b]pyridin-2-one]: the EC50 on hM4 receptors is under 50 nM; at rM4 receptors, 200 to 1000 nM.
Taken in the same sequence, the figures for `Cc1cc(=O)n(C)c2c1CN(C(=O)CC1CN(c3ccc(C(F)(F)F)cc3)C1)C2` [Compound I-5] were under 50 nM and over 1000 nM.
Take `Cc1cc2c(n(C)c1=O)CN(C(=O)CC1CN(c3ccnc(C(F)(F)F)c3)C1)C2` [Compound I-112, 1,3-Dimethyl-6-(2-(1-(2-(trifluoromethyl)pyridin-4-yl)azetidin-3-yl)acetyl)-1,5,6,7-tetrahydro-2H-pyrrolo[3,4-b]pyridin-2-one]: the EC50 is 50 to 200 nM on hM4 receptors and over 1000 nM at rM4 receptors.
In the case of `Cc1c2c(n(C)c(=O)c1Cl)CN(C(=O)CC1CN(c3ccccc3)C1)C2` [Compound I-71], the results for the EC50 at hM4 receptors and on rM4 receptors were under 50 nM and 200 to 1000 nM, respectively.
In the case of `Cc1c2c(n(C)c(=O)c1C)CN(C(=O)CC1CN(c3ccc(CC(C)(C)O)c(F)c3)C1)C2` [Compound I-57], the EC50 is under 50 nM on hM4 receptors and 50 to 200 nM at rM4 receptors.
Taken in the same sequence, the figures for `Cc1cc(=O)n(C2CC2)c2c1CN(C(=O)CC1CN(c3ccnc(C(F)(F)F)c3)C1)C2` [Compound I-103, 1-Cyclopropyl-4-methyl-6-(2-(1-(2-(trifluoromethyl)pyridin-4-yl)azetidin-3-yl)acetyl)-1,5,6,7-tetrahydro-2H-pyrrolo[3,4-b]pyridin-2-one] were 200 to 1000 nM and over 1000 nM.
For `COc1cncc(N2CC(CC(=O)N3Cc4c(C)cc(=O)n(C)c4C3)C2)c1` [Compound I-15] the same measures were under 50 nM and 200 to 1000 nM.
